Measurements reported in the CheMixHub viscosity set.
± gives the uncertainty stated by the source.

Assay: xn = mol fraction of the nth substance listed

O=[N+]([O-])[O-].O=[N+]([O-])[O-].[Cd+2] + O
viscosity [mPa·s], 101.3 kPa
Details	x1 = 0.0009	x1 = 0.0018	x1 = 0.00893	x1 = 0.0177	x1 = 0.02631	x1 = 0.03478	x1 = 0.05127	x1 = 0.06722	x1 = 0.08263
293.15 K	1.02 ± 0.022	1.036 ± 0.022	1.166 ± 0.025	1.363 ± 0.029	1.607 ± 0.034	1.912 ± 0.041	2.746 ± 0.059	3.964 ± 0.085	5.664 ± 0.12
298.15 K	0.9069 ± 0.019	0.9215 ± 0.02	1.041 ± 0.022	1.219 ± 0.026	1.437 ± 0.03	1.708 ± 0.036	2.443 ± 0.052	3.496 ± 0.075	4.949 ± 0.11
303.15 K	0.8129 ± 0.017	0.8263 ± 0.018	0.936 ± 0.02	1.097 ± 0.023	1.293 ± 0.027	1.537 ± 0.033	2.189 ± 0.046	3.11 ± 0.066	4.364 ± 0.093
308.15 K	0.7336 ± 0.016	0.7459 ± 0.016	0.8471 ± 0.018	0.994 ± 0.021	1.171 ± 0.025	1.391 ± 0.029	1.975 ± 0.042	2.789 ± 0.059	3.882 ± 0.083
313.15 K	0.6664 ± 0.014	0.678 ± 0.014	0.7712 ± 0.016	0.9059 ± 0.019	1.067 ± 0.023	1.267 ± 0.027	1.792 ± 0.038	2.521 ± 0.054	3.48 ± 0.074
318.15 K	0.6085 ± 0.013	0.6193 ± 0.013	0.7057 ± 0.015	0.8296 ± 0.017	0.977 ± 0.021	1.16 ± 0.025	1.637 ± 0.035	2.288 ± 0.048	3.143 ± 0.067
323.15 K	0.5582 ± 0.012	0.568 ± 0.012	0.6484 ± 0.014	0.7627 ± 0.016	0.8979 ± 0.019	1.066 ± 0.023	1.502 ± 0.032	2.093 ± 0.044	2.855 ± 0.061

O=c1oc2ccccc2c(O)c1C(c1ccccc1)c1c(O)c2ccccc2oc1=O + CS(C)=O
viscosity [mPa·s], 100 kPa
Details	x1 = 0.0007822	x1 = 0.001562	x1 = 0.002337	x1 = 0.003116	x1 = 0.003894	x1 = 0.004664
293.15 K	2.346 ± 0.14	2.469 ± 0.15	2.592 ± 0.16	2.715 ± 0.17	2.839 ± 0.17	2.963 ± 0.18
298.15 K	2.068 ± 0.13	2.179 ± 0.13	2.286 ± 0.14	2.394 ± 0.15	2.502 ± 0.15	2.611 ± 0.16
303.15 K	1.883 ± 0.12	1.966 ± 0.12	2.063 ± 0.13	2.161 ± 0.13	2.256 ± 0.14	2.352 ± 0.14
308.15 K	1.684 ± 0.1	1.755 ± 0.11	1.825 ± 0.11	1.909 ± 0.12	1.992 ± 0.12	2.076 ± 0.13
313.15 K	1.519 ± 0.093	1.578 ± 0.097	1.638 ± 0.1	1.713 ± 0.11	1.789 ± 0.11	1.862 ± 0.11

CCCCCCCCO + CCCO
viscosity [mPa·s], 101 kPa
Details	298.15 K	308.15 K	318.15 K
x2 = 0.05	7.025 ± 0.069	4.92 ± 0.048	3.71 ± 0.034
x2 = 0.1	6.694 ± 0.066	4.637 ± 0.045	3.555 ± 0.033
x2 = 0.15	6.37 ± 0.063	4.394 ± 0.043	3.406 ± 0.031
x2 = 0.2	6.052 ± 0.06	4.183 ± 0.041	3.261 ± 0.029
x2 = 0.25	5.742 ± 0.056	3.995 ± 0.039	3.12 ± 0.028
x2 = 0.3	5.438 ± 0.053	3.824 ± 0.037	2.982 ± 0.027
x2 = 0.35	5.141 ± 0.05	3.663 ± 0.035	2.847 ± 0.026
x2 = 0.4	4.851 ± 0.047	3.507 ± 0.033	2.713 ± 0.025
x2 = 0.45	4.568 ± 0.043	3.353 ± 0.031	2.581 ± 0.023
x2 = 0.5	4.291 ± 0.04	3.197 ± 0.029	2.45 ± 0.022
x2 = 0.55	4.021 ± 0.037	3.036 ± 0.028	2.32 ± 0.021
x2 = 0.6	3.758 ± 0.034	2.869 ± 0.026	2.191 ± 0.02
x2 = 0.65	3.501 ± 0.032	2.696 ± 0.024	2.063 ± 0.019
x2 = 0.7	3.249 ± 0.029	2.517 ± 0.023	1.936 ± 0.017
x2 = 0.75	3.003 ± 0.027	2.333 ± 0.021	1.811 ± 0.016
x2 = 0.8	2.762 ± 0.025	2.147 ± 0.019	1.687 ± 0.015
x2 = 0.85	2.526 ± 0.023	1.962 ± 0.017	1.565 ± 0.014
x2 = 0.9	2.294 ± 0.021	1.782 ± 0.016	1.445 ± 0.013
x2 = 0.95	2.065 ± 0.018	1.612 ± 0.014	1.329 ± 0.012
